From PubChem BioAssay (NCI)
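Test compounds were applied to cells in 96-well plates for 48 hours at 5 doses. GI50 = concentration required for 50% inhibition of growth. Definition used: TGI = concentration required for complete inhibition of growth.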

Legend:
Assay in all cases: NCI anticancer screen, dose series, 48 h
SK-OV-3 ovarian = tested on: SK-OV-3 ovarian
K-562 leukemia = tested on: K-562 leukemia
ACHN renal = tested on: ACHN renal
HOP-92 NSCLC = tested on: HOP-92 NSCLC
SR leukemia = tested on: SR leukemia
KM12 colon = tested on: KM12 colon
SK-MEL-28 melanoma = tested on: SK-MEL-28 melanoma
SNB-75 CNS = tested on: SNB-75 CNS
M14 melanoma = tested on: M14 melanoma
MDA-MB-231 breast = tested on: MDA-MB-231 breast

Compound	GI50 (SK-OV-3 ovarian)	TGI (SK-OV-3 ovarian)	GI50 (K-562 leukemia)	TGI (K-562 leukemia)	GI50 (ACHN renal)	TGI (ACHN renal)	GI50 (HOP-92 NSCLC)	TGI (HOP-92 NSCLC)	GI50 (SR leukemia)	TGI (SR leukemia)	GI50 (KM12 colon)	TGI (KM12 colon)	GI50 (SK-MEL-28 melanoma)	TGI (SK-MEL-28 melanoma)	GI50 (SNB-75 CNS)	TGI (SNB-75 CNS)	GI50 (M14 melanoma)	TGI (M14 melanoma)	TGI (MDA-MB-231 breast)	GI50 (MDA-MB-231 breast)
CCN1CCN(Cc2ccc(NC(=O)Nc3ccc(-n4ccc5c(NC(=O)c6ccccc6)nccc54)cc3)cc2C(F)(F)F)CC1	1.8 µM	10.5 µM	0.0653 µM	1.52 µM	0.907 µM	2.11 µM	13.3 µM	59.6 µM	0.159 µM	> 100 µM	0.0271 µM	1.45 µM	1.62 µM	3.07 µM	1.37 µM	2.68 µM	1.12 µM	2.39 µM		
Nc1c(S(N)(=O)=O)cc(S(N)(=O)=O)cc1S(N)(=O)=O		> 100 µM		> 100 µM		> 100 µM		> 100 µM				> 100 µM		> 100 µM		> 100 µM		> 100 µM	> 100 µM	
O=c1c(-c2ccccc2)c(SCCN2CCCCCC2)n(-c2ccccc2)c(=S)n1-c1ccccc1		> 100 µM		93.9 µM		> 100 µM		> 100 µM		84.5 µM		> 100 µM		> 100 µM		> 100 µM				
CCC(=O)Nc1ccc(NS(=O)(=O)c2ccc(Cl)cc2)cc1		> 100 µM		> 100 µM		> 100 µM		> 100 µM		> 100 µM		> 100 µM		> 100 µM		> 100 µM		> 100 µM		
C=C1C[C@@H]2CC[C@@]34C[C@H]5O[C@H]6[C@@H](O3)[C@H]3O[C@H](CC[C@@H]3O[C@H]6[C@H]5O4)CC(=O)C[C@@H]3[C@@H](OC)[C@@H](C[C@H](O)CN)O[C@H]3C[C@H]3O[C@@H](CC[C@@H]1O2)C[C@@H](C)C3=C		0.286 µM		> 1 µM		> 1 µM		> 1 µM				0.0104 µM		> 1 µM	0.00046 µM	> 1 µM		0.0307 µM	0.087 µM	
Oc1c(OCc2nnc(CCCCCCCCc3nnc(COc4ccc5ccccc5c4O)o3)o2)ccc2ccccc12		> 100 µM		> 100 µM		> 100 µM		> 100 µM				> 100 µM		> 100 µM		> 100 µM		> 100 µM	> 100 µM	
COc1cc(OC)cc(Oc2nc3cc(F)c(F)cc3nc2-c2ccccc2)c1		> 100 µM				> 100 µM		> 100 µM		> 100 µM		> 100 µM		> 100 µM		> 100 µM		> 100 µM		
Cc1ccc2c(c1C)CC1(Cc3c(C)ccc(C)c3C1=O)C2=O (centres undefined)		> 100 µM		> 100 µM		> 100 µM		> 100 µM				> 100 µM		> 100 µM		> 100 µM		> 100 µM	> 100 µM	
COc1ccc(OC/C(N=Cc2ccncc2)=N/NC(=O)c2ccncc2)cc1		> 100 µM		> 100 µM		> 100 µM		96.4 µM				> 100 µM		> 100 µM				> 100 µM	> 100 µM	
Cc1cc(OCc2nnc3sc(NC(=O)c4ccccc4)nn23)ccc1Cl		> 100 µM		> 100 µM		42.9 µM		34.8 µM				52.6 µM		> 100 µM				> 100 µM	> 100 µM	
O=c1ccn(-c2ccccn2)c(=O)n1-c1ccccn1		> 100 µM		> 100 µM		> 100 µM		> 100 µM				> 100 µM		> 100 µM		> 100 µM		> 100 µM	> 100 µM	
CCOC(=O)Cn1nnc2cc(Nc3c(C)[n+]([O-])c4cc(F)c(OCC)cc4[n+]3[O-])ccc21		> 100 µM		> 100 µM		> 100 µM		49.5 µM				> 100 µM		> 100 µM				> 100 µM	> 100 µM	
COc1ccc(C2=C(Cl)C(=O)O/C2=C\c2ccc(OC)c(Br)c2)cc1Cl		> 100 µM		> 100 µM		40.2 µM		49.9 µM		> 100 µM		> 100 µM		> 100 µM		> 100 µM		> 100 µM		
O=C1/C(=C/c2ccc(Cl)cc2)CCCc2ccc(F)cc21	24.7 µM	69.4 µM	11.1 µM	> 100 µM	27.8 µM	68.5 µM	9.3 µM	34 µM			12.9 µM	34.2 µM	14.7 µM	40.9 µM	48.3 µM	> 100 µM	11.6 µM	39.2 µM	52.8 µM	19.8 µM
COc1ccc(OC)c(NC(=O)C(=O)C(C(=O)c2ccccc2F)C2OC(=O)c3ccccc32)c1 (centres undefined)		> 100 µM		> 100 µM		> 100 µM		> 100 µM		89.1 µM		> 100 µM		> 100 µM		> 100 µM		> 100 µM		
c1c(N2CCOCC2)ssc1=[N+]1CCOCC1		> 100 µM		> 100 µM		> 100 µM		> 100 µM		> 100 µM		> 100 µM		> 100 µM		> 100 µM		> 100 µM		
CC(=O)OC1CC2(O)C(CCC3(C)C(c4ccc(=O)oc4)CCC32O)C2(C)C1=CC(O)C1OC12 (centres undefined)		0.252 µM		0.381 µM				0.157 µM				0.301 µM		0.592 µM		0.3 µM				
